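These data come from cells grown in 96-well plates and exposed to compound for 48 hours at five concentrations. GI50 is the concentration that inhibits growth by half.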 Active and inactive are the calls of the source. No stated cut-off is given here; in the data, active = GI50 up to about 1.1 µM and inactive = higher.
Tests used:
Test in all cases: NCI-60 cell line screen, 48 h
HT-29 = test system: HT-29
IGROV-1 = test system: IGROV-1
K562 = test system: K562
KM12 = test system: KM12
NCI-H460 = test system: NCI-H460
OVCAR-5 = test system: OVCAR-5
OVCAR-8 = test system: OVCAR-8
SF-295 = test system: SF-295
SK-MEL-28 = test system: SK-MEL-28
SK-MEL-2 = test system: SK-MEL-2
SNB-19 = test system: SNB-19
SW-620 = test system: SW-620
UACC-257 = test system: UACC-257
MOLT-4 = test system: MOLT-4
NCI-H226 = test system: NCI-H226
SR = test system: SR

| SMILES | GI50 (HT-29) | GI50 (IGROV-1) | GI50 (K562) | GI50 (KM12) | GI50 (NCI-H460) | GI50 (OVCAR-5) | GI50 (OVCAR-8) | GI50 (SF-295) | GI50 (SK-MEL-28) | GI50 (SK-MEL-2) | GI50 (SNB-19) | GI50 (SW-620) | GI50 (UACC-257) | GI50 (MOLT-4) | GI50 (NCI-H226) | GI50 (SR) |
| --- | --- | --- | --- | --- | --- | --- | --- | --- | --- | --- | --- | --- | --- | --- | --- | --- |
| COC(=O)c1nc(N)nc(O)c1CCCCCc1c(O)nc(N)nc1C(=O)OC | > 50 µM (inactive) | > 50 µM (inactive) | > 50 µM (inactive) | > 50 µM (inactive) | > 50 µM (inactive) | > 50 µM (inactive) | > 50 µM (inactive) | > 50 µM (inactive) | > 50 µM (inactive) | > 50 µM (inactive) | > 50 µM (inactive) | > 50 µM (inactive) | > 50 µM (inactive) |  |  |  |
| CCn1c2ccccc2c2ccc3c(c21)C(=O)C=CC3=O | 21 µM (inactive) | 1.39 µM (inactive) | 2.29 µM (inactive) | 14.4 µM (inactive) | 20.2 µM (inactive) | 21.5 µM (inactive) | 13.7 µM (inactive) | 20.4 µM (inactive) | 18.3 µM (inactive) | 21.1 µM (inactive) |  |  | 14.6 µM (inactive) | 2.07 µM (inactive) | 18 µM (inactive) |  |
| CC1(c2ccccc2)CC(c2cccc([N+](=O)[O-])c2)=NO1 (stereo not given) | 73.1 µM (inactive) | > 100 µM (inactive) |  | > 100 µM (inactive) | > 100 µM (inactive) | > 100 µM (inactive) | > 100 µM (inactive) | 47.8 µM (inactive) | > 100 µM (inactive) | > 100 µM (inactive) |  | > 100 µM (inactive) | > 100 µM (inactive) | 56.2 µM (inactive) | > 100 µM (inactive) | > 100 µM (inactive) |
| CCN(CC)c1c(C(=O)/C=C/c2ccc(F)cc2)c(-c2ccccc2)nn(C)c1=O | 6.5 µM (inactive) | 5.98 µM (inactive) | 12.4 µM (inactive) | 4.85 µM (inactive) | 4.49 µM (inactive) | 22.4 µM (inactive) | 4.7 µM (inactive) | 12.2 µM (inactive) | 14.1 µM (inactive) | 4.66 µM (inactive) | 17 µM (inactive) | 8.59 µM (inactive) | 6.89 µM (inactive) | 2.23 µM (inactive) | 14.7 µM (inactive) |  |
| COc1ccc2ccnc(Cc3ccc(OCc4ccccc4)c(OC)c3)c2c1 | 27.8 µM (inactive) |  | 31 µM (inactive) | 18 µM (inactive) | 18.9 µM (inactive) | 40.3 µM (inactive) | 19.1 µM (inactive) | 26.4 µM (inactive) | 16.7 µM (inactive) | 20.7 µM (inactive) | 85.9 µM (inactive) | 33.5 µM (inactive) | 20.8 µM (inactive) | 17.6 µM (inactive) |  |  |
| COC(OC)c1cccnc1C | > 100 µM (inactive) | > 100 µM (inactive) | > 100 µM (inactive) | > 100 µM (inactive) | > 100 µM (inactive) | > 100 µM (inactive) | > 100 µM (inactive) | > 100 µM (inactive) | > 100 µM (inactive) | > 100 µM (inactive) | > 100 µM (inactive) | > 100 µM (inactive) | > 100 µM (inactive) | > 100 µM (inactive) |  | > 100 µM (inactive) |
| COc1cc(C(CC(OC)OC)=C(C#N)C#N)cc(OC)c1OC | 5.6 µM (inactive) | 39.4 µM (inactive) |  | 18.7 µM (inactive) | 6.52 µM (inactive) | > 100 µM (inactive) | 20 µM (inactive) | 19.5 µM (inactive) | 36.3 µM (inactive) | 21.9 µM (inactive) | 39.5 µM (inactive) | 29.7 µM (inactive) | 18 µM (inactive) | 7.26 µM (inactive) | 0.485 µM (active) | 14.5 µM (inactive) |
| C/C(CC(=O)Nc1cc(Cl)c(Cl)cc1Cl)=N\NS(=O)(=O)c1ccc(C)cc1 | 51.3 µM (inactive) | 37.4 µM (inactive) | 35.5 µM (inactive) | 40.3 µM (inactive) | 38.8 µM (inactive) | 53.8 µM (inactive) | 39.3 µM (inactive) | 37.1 µM (inactive) | 34.2 µM (inactive) | 28.9 µM (inactive) |  | 58.3 µM (inactive) | 26 µM (inactive) | 29.5 µM (inactive) | 17.9 µM (inactive) |  |
| CCN(CC)C(=O)Cc1c(C(=O)N(CC)CC)c(=O)nc2sccn12 | > 100 µM (inactive) | > 100 µM (inactive) | > 100 µM (inactive) | > 100 µM (inactive) | > 100 µM (inactive) |  | > 100 µM (inactive) | > 100 µM (inactive) | > 100 µM (inactive) | > 100 µM (inactive) | > 100 µM (inactive) | > 100 µM (inactive) | > 100 µM (inactive) | > 100 µM (inactive) | > 100 µM (inactive) | > 100 µM (inactive) |
| CON(C)C(=O)CCCO | > 100 µM (inactive) | > 100 µM (inactive) | > 100 µM (inactive) | > 100 µM (inactive) | > 100 µM (inactive) |  | > 100 µM (inactive) | > 100 µM (inactive) | > 100 µM (inactive) | > 100 µM (inactive) | > 100 µM (inactive) | > 100 µM (inactive) | > 100 µM (inactive) | > 100 µM (inactive) | > 100 µM (inactive) | > 100 µM (inactive) |
| c1ccc2c(NCCCCCCNc3cccc4ccccc34)cccc2c1 | > 100 µM (inactive) | > 100 µM (inactive) | > 100 µM (inactive) | > 100 µM (inactive) | > 100 µM (inactive) | > 100 µM (inactive) | > 100 µM (inactive) | > 100 µM (inactive) | > 100 µM (inactive) | > 100 µM (inactive) | > 100 µM (inactive) | 74.5 µM (inactive) | > 100 µM (inactive) | 44.3 µM (inactive) | > 100 µM (inactive) |  |
| O=[N+]([O-])c1cccc(C(O)/C(=N/O)c2nc3ccc(Cl)cc3nc2O)c1 (stereo not given) | > 100 µM (inactive) | > 100 µM (inactive) | > 100 µM (inactive) | > 100 µM (inactive) | > 100 µM (inactive) | > 100 µM (inactive) | > 100 µM (inactive) | > 100 µM (inactive) | > 100 µM (inactive) |  | > 100 µM (inactive) | > 100 µM (inactive) | > 100 µM (inactive) | > 100 µM (inactive) | > 100 µM (inactive) |  |
| COc1ccc(C(=O)O[C@H]2[C@@H]3C=CO[C@@H](OC4OC(CO)C(O)C(O)C4O)[C@@H]3[C@@]3(CO)O[C@@H]23)cc1O (stereo not given in full) | > 100 µM (inactive) | > 100 µM (inactive) | > 100 µM (inactive) | > 100 µM (inactive) | > 100 µM (inactive) | > 100 µM (inactive) | > 100 µM (inactive) | > 100 µM (inactive) | > 100 µM (inactive) | > 100 µM (inactive) | > 100 µM (inactive) | > 100 µM (inactive) | > 100 µM (inactive) | > 100 µM (inactive) |  |  |
| O=C(Nc1ccccc1-c1nc2ccccc2[nH]c1=O)c1ccccc1 | 37.3 µM (inactive) | 26.4 µM (inactive) | > 100 µM (inactive) | 28.7 µM (inactive) | 21.5 µM (inactive) | 63.4 µM (inactive) | 22.9 µM (inactive) | 20.9 µM (inactive) | 43.5 µM (inactive) | 23.5 µM (inactive) | 24.2 µM (inactive) | 27.9 µM (inactive) | 44 µM (inactive) | > 100 µM (inactive) | 25.2 µM (inactive) |  |
| O=Cc1c(O)ccc2ccc(O)c(-c3c(O)ccc4ccc(O)cc34)c12 | > 100 µM (inactive) | > 100 µM (inactive) | > 100 µM (inactive) | 98.4 µM (inactive) | > 100 µM (inactive) | > 100 µM (inactive) | > 100 µM (inactive) | 53.1 µM (inactive) | > 100 µM (inactive) | 31.8 µM (inactive) |  | > 100 µM (inactive) | > 100 µM (inactive) | > 100 µM (inactive) | 28.6 µM (inactive) | 67.9 µM (inactive) |
| CS(=O)(=O)OCCN1CCN(C(=O)c2ccc(Cl)c3c(Nc4ccc(S(=O)(=O)N=C(N)N)cc4)c4ccccc4nc23)CC1 | > 100 µM (inactive) | > 100 µM (inactive) | > 100 µM (inactive) | > 100 µM (inactive) | > 100 µM (inactive) | > 100 µM (inactive) | > 100 µM (inactive) | > 100 µM (inactive) | > 100 µM (inactive) | > 100 µM (inactive) | > 100 µM (inactive) |  | > 100 µM (inactive) | > 100 µM (inactive) | > 100 µM (inactive) | > 100 µM (inactive) |
| C=Cc1ccc(C)[n+](C[Si](C)(C)O[Si](C)(C)C)c1 | > 100 µM (inactive) | > 100 µM (inactive) | > 100 µM (inactive) | > 100 µM (inactive) |  | > 100 µM (inactive) | > 100 µM (inactive) | > 100 µM (inactive) | > 100 µM (inactive) | > 100 µM (inactive) | > 100 µM (inactive) | > 100 µM (inactive) | > 100 µM (inactive) | > 100 µM (inactive) | > 100 µM (inactive) | > 100 µM (inactive) |
| CSc1ccc2c(cc1=O)[C@@H](NC(=O)c1ccc(Cl)cc1)CCc1cc(O)c(O)c(O)c1-2 | > 100 µM (inactive) | 22.1 µM (inactive) | 18.2 µM (inactive) | 40.4 µM (inactive) | 43.5 µM (inactive) | > 100 µM (inactive) | 50 µM (inactive) | 38.5 µM (inactive) | 80 µM (inactive) | > 100 µM (inactive) | 49.5 µM (inactive) | 19.5 µM (inactive) | > 100 µM (inactive) | 26.3 µM (inactive) | > 100 µM (inactive) |  |
| Cc1c(O)c(=O)ccn1C1OC(CO)C(O)C1O (stereo not given) | > 100 µM (inactive) |  | 50.4 µM (inactive) | > 100 µM (inactive) | 59.4 µM (inactive) | > 100 µM (inactive) | > 100 µM (inactive) | > 100 µM (inactive) | > 100 µM (inactive) | > 100 µM (inactive) | > 100 µM (inactive) | > 100 µM (inactive) | > 100 µM (inactive) | 67.1 µM (inactive) | > 100 µM (inactive) | > 100 µM (inactive) |
